Results: EP0162568A2, “Paulomycin analogues and their preparation” (THE UPJOHN COMPANY, priority 1984, dated 1985)
Read-outs that look alike come from different tables or passages of the source.

Legend:
[1] = in water; background statement; cited from earlier work
[2] = solubility (characterization); format: physicochemical
Gram-positive organisms = test: antibacterial activity, general statement; format: cell-based; conditions: including organisms resistant to penicillins, macrolides and lincosaminides
[3] = free acid form, in phosphate buffers at physiological pH (7.0-7.5)
[4] = in chloroform, methylene chloride
[5] = in ether and saturated hydrocarbon solvents
[6] = in lower alcohols, ketones, ethyl acetate

| Compound | Solubility [1] | Solubility [2, 3] | Solubility ([2]; free acid form, in water) | Solubility [2, 4] | Solubility [2, 5] | Solubility [2, 6] | Solubility ([2]; salts, in water) | activity against Gram-positive organisms (Gram-positive organisms) |
| --- | --- | --- | --- | --- | --- | --- | --- | --- |
| paulomycin | relatively insoluble | – | – | – | – | – | – | – |
| CC=C(NC(=S)SCC(NC(C)=O)C(=O)O)C(=O)OC1C(COC(C)=O)OC(C2(O)CC(=O)C(O)=C(C(N)=O)C2=O)C(O)C1OC1CC(OC)C(O)(C(C)OC(=O)C(C)CC)C(C)O1 (stereo not drawn) [Antibiotic 273a2α] | – | soluble | insoluble | less soluble | insoluble | Soluble | soluble | active |
| CC=C(NC(=S)SCC(NC(C)=O)C(=O)O)C(=O)OC1C(COC(C)=O)OC(C2(O)CC(=O)C(O)=C(C(N)=O)C2=O)C(O)C1OC1CC(OC)C(O)(C(C)OC(=O)C(C)C)C(C)O1 (stereo not drawn) [Antibiotic 273a2β] | – | soluble | insoluble | less soluble | insoluble | Soluble | soluble | active |
